Positions of bridges follow the written chain, without caps; N, C: chain ends. Non-standard residues stand in square brackets, D forms with d. Residues, ends and D or L forms follow the SMILES beside them. *: point of attachment. Ileψ(thiazoline)Cys = CC[C@H](C)[C@H](N)C1=N[C@H](C(=O)*)CS1; dOrn = NCCC[C@@H](N)C(=O)O
System: exponential phase P. aeruginosa
Experiment: Susceptibility testing of exponential phase planktonic P. aeruginosa cells (suspension kill)
Assay type: cell-based, Pseudomonas aeruginosa
Details: bacitracin 33 U/ml, 20 sec.-20 min.

Structure (SMILES): CC[C@H](C)[C@H](N)C1=N[C@H](C(=O)N[C@@H](CC(C)C)C(=O)N[C@H](CCC(=O)O)C(=O)N[C@H](C(=O)N[C@H]2CCCCNC(=O)[C@H](CC(N)=O)NC(=O)[C@@H](CC(=O)O)NC(=O)[C@H](Cc3cnc[nH]3)NC(=O)[C@@H](Cc3ccccc3)NC(=O)[C@H]([C@@H](C)CC)NC(=O)[C@@H](CCCN)NC2=O)[C@@H](C)CC)CS1 [bacitracin] ({Ileψ(thiazoline)Cys}-L[dE]IK[dOrn]I[dF]H[dD]N; lactam 4-C)
- reduction of viability: ineffective and did not result in reduction of viability

Reference: patent publication US10617715B2, “Methods of treating or preventing biofilm associated infections with free available chlorine free available chlorine water” (Sonoma Pharmaceuticals, Inc., priority 2008, dated 2020)
